Experimental data taken from ChEMBL document CHEMBL1130123, “Optimization of 3-(1H-indazol-3-ylmethyl)-1,5-benzodiazepines as potent, orally active CCK-A agonists” (J Med Chem, 1997).

Tests used:
[1] = Total body clearance at an intravenous dose of 5.2 mg/kg in rat; assay type: ADME, organism-based; set-up: dose 5.2 mg/kg, route intravenous; details: in vivo
[2] = Maximum concentration at an intraduodenal dose of 5.2 mg/kg in rat; assay type: ADME, organism-based; set-up: dose 5.2 mg/kg, route intraduodenal; details: in vivo
[3] = Oral bioavailability in Long-Evans rats at an intraduodenal dose of 5.2 mg/kg; assay type: ADME, organism-based; details: rat, in vivo, other: intraduodenal
[4] = Oral bioavailability in Long-Evans rats at an intravenous dose of 5.2 mg/kg; Not active; assay type: ADME, organism-based; details: rat, in vivo
[5] = Half life period at an intravenous dose of 5.2 mg/kg in rat; assay type: ADME, organism-based; set-up: dose 5.2 mg/kg, route intravenous; details: in vivo
[6] = Volume of distribution at steady state at an intravenous dose of 5.2 mg/kg in rat; assay type: ADME, organism-based; set-up: dose 5.2 mg/kg, route intravenous; details: in vivo, read-out: Vss
[7] = system: Mus musculus; assay: Maximal response at 1 nmol/kg peroral dose; assay type: functional
[8] = Maximum concentration at an intravenous dose of 5.2 mg/kg; assay type: ADME, organism-based; set-up: dose 5.2 mg/kg, route intravenous; details: rat, in vivo

With `COc1ccc(N(C(=O)CN2C(=O)C(C)(Cc3n[nH]c4ccccc34)C(=O)N(c3ccccc3)c3ccccc32)C(C)C)cc1` (stereo not drawn) the clearance [1] was 30 mL/min/kg, the Cmax [2] was 30 ng/mL and the bioavailability [3] was 15%. For the same compound, the F [4] was “Not Active”, the half-life [5] was 3.9 h and the Vd [6] was 4.31 L/kg. For the same compound, the Max [7] was 28% and the Cmax [8] was 3390 ng/mL.
